# Measurements published in US11795152B2, “Crystal form of tafamidis and preparation method therefor and use thereof” (CRYSTAL PHARMACEUTICAL (SUZHOU) CO., LTD., priority 2019, dated 2023).
# Entries after “also recorded” stand apart in the source; their conditions may differ.
# How the values were obtained:
# Format in all cases: physicochemical
# [1] = Stability of crystalline form of Compound I in WO2019175263 in drug product formulation process; conditions: formulation of Table 34, stirring at room temperature
# Description: The crystalline form of Compound I in WO2019175263 was made into drug products according to the formulation and preparation process in Table 34 and Table 35. The XRPD patterns were collected before and after the formulation process. […] Form change occurred during stirring at room temperature.
# [2] = Stability of drug substance on storage (XRPD, HPLC purity); conditions: for chemical purity during storage: drug substance
# Description: Crystalline form and chemical impurity were checked by XRPD and HPLC, respectively.
# Crystalline form and purity were checked by XRPD and HPLC, respectively.
# [3] = Hygroscopicity by dynamic vapor sorption (DVS); conditions: 80% RH; for Weight gain: 25° C., DVS; for hygroscopicity: pharmacopoeia definition
# Method: Dynamic Vapor Sorption (DVS) is measured via a SMS (Surface Measurement Systems Ltd.) intrinsic DVS instrument. Its control software is DVS-Intrinsic control software. Typical parameters for DVS tests are as follows:
# Gas and flow rate: N2, 200 mL/min
# RH range: 0% RH to 95% RH
# The weight gains at each relative humidity were recorded in a cycle of 0-95%-0 RH. The XRPD patterns were collected before and after the DVS test and depicted in FIG. 11.
# Description and definition of hygroscopicity (general notice 9103 drug hygroscopicity test guidelines in 2015 edition of Chinese Pharmacopoeia, test at 25° C.+/−1° C., 80% RH. The definition of hygroscopicity in the 9th European Pharmacopoeia 5.11 is in consistent with the Chinese Pharmacopoeia.). • deliquescent: sufficient water is absorbed to form a solution. • very hygroscopic: increase in mass is equal to or greater than 15 percent. • hygroscopic: increase in mass is less than 15 percent and equal to or greater than 2 percent. • slightly hygroscopic: increase in mass is less than 2 percent and equal to or greater than 0.2 percent. • non hygroscopic or almost non hygroscopic: Increase in mass is less than 0.2%.
# The weight gains at each relative humidity were recorded in a cycle of 0-95%-0RH. The XRPD patterns were collected before and after the DVS test and depicted in FIG. 22. […] Form CSVI is slightly hygroscopic.
# The weight gains at each relative humidity were recorded in a cycle of 0-95%-0RH. The XRPD patterns were collected before and after the DVS test and depicted in FIG. 31.
# [4] = Dissolution profile of tablets in pH6.8 PBS+3% Tween 80; conditions: tablet 61 mg, paddle 75 rpm, 37° C.
# Method: (§1) The cumulative dissolution was measured at different time in pH6.8 PBS+1% Tween 80 and pH6.8 PBS+3% Tween 80. The dissolution results are presented in Table 24 (FIG. 23) and Table 25 (FIG. 24).
# [5] = Dissolution profile of tablets in pH6.8 PBS+1% Tween 80; conditions: tablet 61 mg, paddle 75 rpm, 37° C.
# Method: as §1
# The cumulative dissolution was measured at different time in pH6.8 PBS+1% Tween 80.
# [6] = Grinding stability (XRPD before and after grinding); conditions: manually ground in the mortar for five minutes
# Description: A certain amount of Form CSV and WO2016038500 Form 1 were manually ground in the mortar for five minutes.
# [7] = Dissolution profile of capsules in pH6.8 PBS; conditions: capsule 61 mg, paddle 50 rpm, 37° C.
# Method: The cumulative dissolution was measured at different time in pH6.8 PBS.
# [8] = Compressibility (manual tablet press, tensile strength); conditions: 80 mg, φ6 mm round tooling, 10 KN; for Hardness: 24 hours recovery; for Tensile strength: T=2H/πDL*9.8
# Method: An ENERPAC manual tablet press was used for tableting. […] Diameter (D) and thickness (L) were tested with a caliper. Hardness (H) was tested with an intelligent tablet hardness tester. Tensile strength of the powder was calculated with the following formula: T=2H/πDL*9.8. Under a certain force, the greater the tensile strength, the better the compressibility.
# Diameter (D) and thickness (L) were tested with a caliper. Hardness (H) was tested with an intelligent tablet hardness tester. Tensile strength of the powder was calculated with the following formula: T=2H/πDL*9.8. Under a certain force, the greater the tensile strength, the better the compressibility.
# [9] = Stability of Form CSV in drug product; conditions: for Purity % / Solid Form: drug product
# Description: X-ray powder diffraction patterns of drug product stability study in the present disclosure were acquired by a Bruker D8 Discover X-ray powder diffractometer. The parameters of the X-ray powder diffraction method of the present disclosure are as follows:
# The XRPD patterns were collected before and after the formulation process.
# [10] = Adhesiveness (material sticking to the punch); conditions: 30 mg, φ8 mm round tooling, 10 KN held for 30 s
# Method: The punch was weighed and amount of material sticking to the punch was calculated. The compression was repeated twice and the cumulative amount, maximum amount and average amount of material sticking to the punch during the compression were recorded.
# [11] = 40° C./75% RH, Sealed, 6 months
# [12] = 60° C./75% RH, Sealed, 2 months
# [13] = 40° C./75% RH and 60° C./75% RH
# [14] = double aluminum blister, 25° C./60% RH, 3 months
# [15] = double aluminum blister, 40° C./75% RH, 3 months
structure (smiles),measurement,setting,value
O=C(O)c1ccc2nc(-c3cc(Cl)cc(Cl)c3)oc2c1,stability in the formulation process (XRPD before and after),[1],unstable in the formulation process
O=C(O)CCCC(=O)O.O=C(O)c1ccc2nc(-c3cc(Cl)cc(Cl)c3)oc2c1.O=C(O)c1ccc2nc(-c3cc(Cl)cc(Cl)c3)oc2c1 [Form CSVI],Purity,"[2]; 25° C./60% RH, Open, 6 months",99.96%
same,Solid Form,"[2]; 25° C./60% RH, Open, 6 months",Form CSVI
same,Purity,"[2]; 40° C./75% RH, Open, 6 months",99.95%
same,Solid Form,"[2]; 40° C./75% RH, Open, 6 months",Form CSVI
same,Purity,[2]; [11],99.95%
same,Solid Form,[2]; [11],Form CSVI
same,Purity,[2]; [12],99.95%
same,Solid Form,[2]; [12],Form CSVI
same,Purity,[2]; Initial,99.95%
same,Solid Form,[2]; Initial,Form CSVI
same,chemical purity during storage,[2]; 25° C./60% RH,above 99.9%
same,chemical purity during storage,[2]; [13],above 99.9%
same,Weight gain,[3],0.21%
same,hygroscopicity,[3],slightly hygroscopic (increase in mass is less than 2 percent and equal to or greater than 0.2 percent)
same,Cumulative drug release in pH 6.8 PBS + 3% Tween 80 (%),[4]; 0 min,0.0%
same,Cumulative drug release in pH 6.8 PBS + 3% Tween 80 (%),[4]; 5 min,27.0%
same,Cumulative drug release in pH 6.8 PBS + 3% Tween 80 (%),[4]; 10 min,38.2%
same,Cumulative drug release in pH 6.8 PBS + 3% Tween 80 (%),[4]; 15 min,46.4%
same,Cumulative drug release in pH 6.8 PBS + 3% Tween 80 (%),[4]; 20 min,51.9%
same,Cumulative drug release in pH 6.8 PBS + 3% Tween 80 (%),[4]; 30 min,60.4%
same,Cumulative drug release in pH 6.8 PBS + 3% Tween 80 (%),[4]; 45 min,68.5%
same,Cumulative drug release in pH 6.8 PBS + 3% Tween 80 (%),[4]; 60 min,73.8%
same,Cumulative drug release in pH 6.8 PBS + 3% Tween 80 (%),[4]; 90 min,79.2%
same,Cumulative drug release in pH 6.8 PBS + 3% Tween 80 (%),[4]; 120 min,81.9%
same,Cumulative drug release in pH 6.8 PBS + 1% Tween 80 (%),[5]; 0 min,0.0%
same,Cumulative drug release in pH 6.8 PBS + 1% Tween 80 (%),[5]; 5 min,19.1%
same,Cumulative drug release in pH 6.8 PBS + 1% Tween 80 (%),[5]; 10 min,28.3%
same,Cumulative drug release in pH 6.8 PBS + 1% Tween 80 (%),[5]; 15 min,34.7%
same,Cumulative drug release in pH 6.8 PBS + 1% Tween 80 (%),[5]; 20 min,39.8%
same,Cumulative drug release in pH 6.8 PBS + 1% Tween 80 (%),[5]; 30 min,47.4%
same,Cumulative drug release in pH 6.8 PBS + 1% Tween 80 (%),[5]; 45 min,56.0%
same,Cumulative drug release in pH 6.8 PBS + 1% Tween 80 (%),[5]; 60 min,62.1%
same,Cumulative drug release in pH 6.8 PBS + 1% Tween 80 (%),[5]; 90 min,70.4%
same,Cumulative drug release in pH 6.8 PBS + 1% Tween 80 (%),[5]; 120 min,75.7%
same,Cumulative drug release in pH 6.8 PBS + 1% Tween 80 (%),[5]; 150 min,80.7%
O=C(O)/C=C/C(=O)O.O=C(O)c1ccc2nc(-c3cc(Cl)cc(Cl)c3)oc2c1.O=C(O)c1ccc2nc(-c3cc(Cl)cc(Cl)c3)oc2c1 [Form CSV],Purity,"[2]; 25° C./60% RH, Open, 6 months",99.96%
same,Solid Form,"[2]; 25° C./60% RH, Open, 6 months",Form CSV
same,Purity,"[2]; 40° C./75% RH, Open, 6 months",99.96%
same,Solid Form,"[2]; 40° C./75% RH, Open, 6 months",Form CSV
same,Purity,[2]; [11],99.96%
same,Solid Form,[2]; [11],Form CSV
same,Purity,"[2]; 60° C./75% RH, Open, 2 months",99.94%
same,Solid Form,"[2]; 60° C./75% RH, Open, 2 months",Form CSV
same,Purity,[2]; [12],99.94%
same,Solid Form,[2]; [12],Form CSV
same,Purity,[2]; Initial,99.96%
same,Solid Form,[2]; Initial,Form CSV
same,chemical purity during storage,[2]; 25° C./60% RH,above 99.9%
same,chemical purity during storage,[2]; [13],above 99.9%
same,Weight gain,[3],0.09%
same,hygroscopicity,[3],non hygroscopic or almost non-hygroscopic; also recorded: non-hygroscopic or almost non-hygroscopic
same,crystallinity after grinding,[6],keeps substantially unchanged
same,Cumulative drug release (%),[7]; 0 min,0.0%
same,Cumulative drug release (%),[7]; 5 min,6.6%
same,Cumulative drug release (%),[7]; 10 min,67.6%
same,Cumulative drug release (%),[7]; 15 min,82.8%
same,Cumulative drug release (%),[7]; 20 min,88.4%
same,Cumulative drug release (%),[7]; 30 min,89.1%
same,Cumulative drug release (%),[7]; 45 min,87.4%
same,Cumulative drug release (%),[7]; 60 min,86.4%
same,Hardness,[8],4.85 kgf
same,Tensile strength,[8],2.86 MPa
same,Purity %,[9]; Initial,99.84%
same,Solid Form,[9]; Initial,Form CSV
same,Purity %,[9]; [14],99.87%
same,Solid Form,[9]; [14],Form CSV
same,Purity %,[9]; [15],99.86%
same,Solid Form,[9]; [15],Form CSV
same,stability in the formulation process (XRPD before and after),"[9]; formulation of Table 10, process of Table 11",stable in the formulation process
"O=C(O)c1ccc2nc(-c3cc(Cl)cc(Cl)c3)oc2c1 [WO2016038500 Form 1, reference compound]",Average amount (mg) of material sticking to the punch,[10],0.265 mg
same,Cumulative drug release in pH 6.8 PBS + 3% Tween 80 (%),[4]; 0 min,0.0%
same,Cumulative drug release in pH 6.8 PBS + 3% Tween 80 (%),[4]; 5 min,22.7%
same,Cumulative drug release in pH 6.8 PBS + 3% Tween 80 (%),[4]; 10 min,33.1%
same,Cumulative drug release in pH 6.8 PBS + 3% Tween 80 (%),[4]; 15 min,39.7%
same,Cumulative drug release in pH 6.8 PBS + 3% Tween 80 (%),[4]; 20 min,45.0%
same,Cumulative drug release in pH 6.8 PBS + 3% Tween 80 (%),[4]; 30 min,52.5%
same,Cumulative drug release in pH 6.8 PBS + 3% Tween 80 (%),[4]; 45 min,60.5%
same,Cumulative drug release in pH 6.8 PBS + 3% Tween 80 (%),[4]; 60 min,65.9%
same,Cumulative drug release in pH 6.8 PBS + 3% Tween 80 (%),[4]; 90 min,73.0%
same,Cumulative drug release in pH 6.8 PBS + 3% Tween 80 (%),[4]; 120 min,77.2%
same,crystallinity after grinding,[6],decreases
same,Cumulative drug release in pH 6.8 PBS + 1% Tween 80 (%),[5]; 0 min,0.0%
same,Cumulative drug release in pH 6.8 PBS + 1% Tween 80 (%),[5]; 5 min,4.0%
same,Cumulative drug release in pH 6.8 PBS + 1% Tween 80 (%),[5]; 10 min,10.4%
same,Cumulative drug release in pH 6.8 PBS + 1% Tween 80 (%),[5]; 15 min,15.6%
same,Cumulative drug release in pH 6.8 PBS + 1% Tween 80 (%),[5]; 20 min,19.5%
same,Cumulative drug release in pH 6.8 PBS + 1% Tween 80 (%),[5]; 30 min,25.7%
same,Cumulative drug release in pH 6.8 PBS + 1% Tween 80 (%),[5]; 45 min,33.0%
same,Cumulative drug release in pH 6.8 PBS + 1% Tween 80 (%),[5]; 60 min,38.4%
same,Cumulative drug release in pH 6.8 PBS + 1% Tween 80 (%),[5]; 90 min,46.8%
same,Cumulative drug release in pH 6.8 PBS + 1% Tween 80 (%),[5]; 120 min,53.3%
same,Cumulative drug release in pH 6.8 PBS + 1% Tween 80 (%),[5]; 150 min,61.4%
same,Cumulative drug release (%),[7]; 0 min,0.0%
same,Cumulative drug release (%),[7]; 5 min,14.0%
same,Cumulative drug release (%),[7]; 10 min,27.3%
same,Cumulative drug release (%),[7]; 15 min,29.1%
same,Cumulative drug release (%),[7]; 20 min,28.1%
same,Cumulative drug release (%),[7]; 30 min,27.6%
same,Cumulative drug release (%),[7]; 45 min,26.8%
same,Cumulative drug release (%),[7]; 60 min,21.8%
same,Hardness,[8],2.32 kgf
same,Tensile strength,[8],1.78 MPa
